Data as given in US11028127B2, “Peptides capable of reactivating p53 mutants” (Yeda Research and Development Co. Ltd., priority 2013, dated 2021).
Where no end group is shown, it is not given here. The star is where a group is joined. Myristoyl = CCCCCCCCCCCCCC(=O)*

How the values were obtained:
Mut-p53 (R175H p53) = target: T1, Mut-p53 (R175H p53) (Homo sapiens, UniProt P04637, R175H); experiment: Sandwich ELISA for p53 conformation (PAb1620/PAb240 reactivity); type: biochemical; details: extract of H1299 cells overexpressing R175H p53; peptide 50 ng/ml, 2 hours
T1 construct: a hot spot full length mutant p53 Mut-p53 R175H (R175H p53); expressed in transfected cells; host or cells: H1299 (p53-null) cells stably overexpressing R175H p53; cell extract
Method: To measure the conformational effect of the peptides on Mut-p53, a micro-titer plate was coated with either PAb240, PAb1620 or pAb421 (as a positive control and standard for total p53 protein, since the antibody used recognizes both WT and mutant conformations), overnight incubated, washed, blocked, and cell extracts (with or without peptides) were added for an additional 2 hours. After removal of extracts, plates were washed and incubated with the αp53-HRP conjugated Ab for the detection of p53 levels. A TMB (substrate of HRP) assay was performed and optical density was determined at 450 nm. WT p53 served as a positive control for reactivity with PAb1620, and Mut-p53 served as a negative control. The results are presented as the ratio of absorbance between the PAb1620 or PAb240 samples and the control […] sample. MCF7 and H1299-Mut-p53 (ts) A135V (TS) cells were used as positive controls for the WT p53 conformation (1620/240 ratio equals or exceeds 5:1).
96-well plates were coated using 3 different antibodies (1 type of antibody (Ab) in each well): PAb421 recognizes both conformations of p53 and binds to a C-terminus epitope; PAb240 recognizes mutant conformation of p53, binds to epitope within the core domain (amino acids 212-217) (Stephen, C. W. and D. P. Lane, Mutant conformation of p53. Precise epitope mapping using a filamentous phage epitope library. J. Mol. Biol., 1992. 225(3): p. 577-83) which is accessible to the Ab when the protein is partially denatured (for example, when the DBD is mutated); and PAb1620, which recognizes WT conformation of p53, binds to epitope with in the core domain (aa 156, 206-210), formed when folding is in WT conformation (Wang, P. L., F. Salt, and G. Winter, The ‘wild type’ conformation of p53: epitope mapping using hybrid proteins. Oncogene, 2001. 20(18): p. 2318-24).
Wells were incubated overnight (ON) with 100 μl Ab (5 μg/ml) in room temp (RT). The liquid was discarded, and the wells were washed 3 times with Phosphate buffered saline (PBS), 200 μl per each wash. Next, blocking with 200 μl of 5% bovine serum albumin (BSA) diluted in PBS in each well for 1.5 hours at room temperature (RT) was performed. Blocking buffer was discarded, followed by 3 washes in PBS as described above. Samples of mutant and WT p53 proteins (100 μl, 10 μg/ml), together with control peptides pCAP-710 (LPNPPER, SEQ ID NO:328) and pCAP-1220 ([…], SEQ ID NO:368) (5 μg/ml, Sigma Aldrich, or with test peptides 1-153 (5 μg/ml), were incubated for 1.5 hours together, and then added to the wells. Samples were rotated and incubated for 1 hour at RT. Samples were discarded, following 4 washes as described above, using Trisphosphate buffered saline (TPBS). Next, horseradish peroxidase (HRP) conjugated streptavidin p53 antibody (10 μg/ml HAF1355 (R&D)) was added to the wells and incubated at RT for 1 hour. After the plate was washed 3 times in TPBS, TMB substrate solution (50 μl each well, Thermo, (Cat. No. ES001-1L-K)) was added and incubated at 37° c. for 20 min. The reaction was stopped with 2M sulfuric acid (50 μl). The absorbance was measured at 450 nm with a spectrophotometer. Protein concentration was determined by dividing the absorbencies of each sample to the absorbance of Ab 421 samples.
The first screening strategy was based on ELISA. A version of sandwich ELISA was used to examine the effect of the lead test peptides on p53 conformation. To measure the conformational effect of the peptides on Mut-p53, a micro-titer plate was coated with PAb240, PAb1620 or pAb421 (as a positive control), and then the reactivity of p53 to these antibodies was examined. WT p53 served as a positive control for reactivity with PAb1620, and Mut-p53 served as a negative control. To examine the effect of a tested peptide it was added to a solution containing Mut-p53 and change in reactivity to either Ab was tested. […] Several ELISA experiments using different cell extracts were performed. […]

[1] = system: WI-38 fibroblasts overexpressing R175H p53 (WI38-175); experiment: Crystal violet viability assay; type: cell-based; details: 48 hours; much more prominent than in mNoxa-i control cells
Method: FIGS. 13A and 13B are bar graphs illustrating the effect of various tested peptides on the viability of cells expressing Mut-p53, as determine by crystal violet assay. WI-38 fibroblasts expressing endogenous WT p53 were infected with retroviruses expressing either mouse Noxa shRNA (WI38-m-Noxa-i) as a nonspecific control or the R175H p53 mutant for stable overexpression of mutant p53 (WI38-175). The cells (WI38-m-Noxa-i or WI38-175) were seeded at 3000 cells per well in 96-well plates. Tested peptides were added to the cells. Different concentrations of etoposide (cytotoxic drug, 4′-Demethyl-epipodophyllotoxin 9-[4,6-O—(R)-ethylidene-beta-D-glucopyranoside], 4′-(dihydrogen phosphate) were used as positive control for cell death and as a standard reference curve to assess the effect of tested peptides. 48 hours after treatment, cells were washed with PBS to exclude dead cells and debris, and cells that remained attached to the plate were stained with crystal-violet for 30 minutes. Crystal violet was removed and cells were washed 4 times with PBS to remove residual crystal violet. Then, the stained cells were dissolved in 10% acetic acid and plates were taken for optical density measurement at 595 nM (optimal for crystal violet). The bar graphs of FIGS. 13A and 13B show the optical density reads at 595 nm, which reflect the number of cells in the plate after treatment, normalized to the non-treated (NT) samples.
Cells were cultured in 96 wells plates with 2500-4000 cells/well in 0.1 ml and incubated overnight at 37° C. in order to adhere to the plate. Serial dilutions of different peptides (0.5 μg/ml) were added in 0.1 ml aliquots and the plates incubated for additional 48 h at 37° C. Then medium was removed and cell lysis was determined by staining the cells with crystal violet (0.5%) in methanol/water (1:4, v/v), 50 μl each well, for 10 min, followed by 3 washes with PBS. Afterwards, 10% acetic acid (50 μl) was added to each well and shaken for 10 min. Then, automatic plate reading was performed at 595 nm.
An important indication for the reactivating peptides activity is their effect in-vivo on cancer cells that express Mut-p53. In particular, reactivating peptides that can cause specifically Mut-p53-dependent death of cancer cells, with minimal toxic effects on normal cells are desired. A crystal-violet based viability assay, in which crystal-violet is employed to stain cells that adhere to the plate and therefore the amount of dye is proportional to cell number was used to determine the effect of the various test peptides on Mut-p53-dependent death.
Cells were plated in 96-well plates, at calibrated density that allows them to grow for 48 hours without reaching confluence. Peptides are added 6 hours later. Different concentrations of etoposide (cytotoxic drug) were used as positive control for cell death and as a standard reference curve to assess the effect of tested peptides. 48 hours after treatment, cells were washed with PBS to exclude dead cells and debris, and cells that remained attached to the plate were stained with crystal-violet for 30 minutes. Crystal-violet was removed and cells were washed with PBS 4 times to eliminate remains of crystal-violet. Then, the stained cells were dissolved in 10% acetic acid and plates were taken for optical density measurement at 595 nM (specific to crystal-violet).
FIGS. 13A and 13B illustrate a representative experiment of screening performed on 128 synthesized peptides. In this experiment, WI-38 fibroblasts were used. These cells express endogenous WT p53 and were further infected with a virus expressing either mouse Noxa shRNA, as a nonspecific control or the R175H p53 mutant for stable overexpression of mutant p53. Both of these sub-lines (mNoxa or R175H p53) were seeded at 3000 cells per well and treated as described above. […]

[2] = system: SW-480 colon carcinoma cells (p53 R273H and P309S); experiment: Xenograft model, Preclinical Trial #3 (Table 9 experiment 3); type: in vivo, CD1 nude/nude mice
Method: FIGS. 21A, 21B, 21C, 21D and 21E illustrate the in vivo effect of the indicated peptides in a mouse xenograft model. SW-480 colon cancer cells expressing endogenous mutant p53 and stably expressing luciferase were injected into the left hip of CD1 nude/nude mice. When tumors reached visible size, bioluminescence (indicative of the number of cancer cells) was measured with the IVIS200 system.
After observing the highly significant result in the MDA-MB-231 experiment, additional studies were aimed to extend the observation and examine cells from a different origin, harboring a different p53 point mutation. The SW-480 colon carcinoma cell line harbors two endogenous p53 mutations: the R273H and P309S. SW-480 cells were stably infected with the luciferase reporter gene, and 10^6 cells were subcutaneously injected into nude mice. The experiment contained 15 mice that were randomly divided during the experiment into 3 groups: a control group treated with a cocktail of 3 pCAPs previously proven ineffective, a group treated with a cocktail of 3 effective pCAP (250, 308, 325) and finally a group treated with a single peptide, the pCAP-325. The duration of the SW-480 experiment was 42 days from the point of cell implantation. The time line is relative to the first day of treatment which is marked as day 0. FIGS. 21A-E show tumor growth over time in all three groups as measured by live imaging in the IVIS.
4 pre-clinical experiments have already been performed thus far, using the xenograft model of Mut-p53 expressing cells transfected with a luciferase expression vector, allowing tumor monitoring by live imaging. Two experiments were performed with MDA-MB-231 triple negative breast cancer cells (p53 R280K), one experiment used SW-480 colon cancer carcinoma cells (p53 R273H) and another experiment used SKBR3 breast cancer cells (p53 R175H). In each experiment, cells from the corresponding cell line were injected subcutaneously and allowed the formation of well-established tumors visible both by eye and by live imaging (typically 2-3 weeks). A treatment regimen was then administered, composed of intra-tumor injection of either effective lead peptides or control peptides (showing no activity in-vitro) every three days for a period of up to 42 days.

[3] = system: ES2 ovarian carcinoma cells (Mut-p53, position 241); experiment: Annexin-V/PI apoptosis assay by flow cytometry; type: cell-based; details: 12 ug/ml
Method: FIGS. 17A, 17B, 17C and 17D illustrate representative experiments performed on ES2 ovarian carcinoma cells expressing Mut-p53 mutated at position 241 within the DBD. […] Cells were harvested and an apoptosis assay (FIGS. 17A and 17B) was performed using the Annexin-V staining kit (Roche, REF 11 988 549 001). Non-fixed cells were stained with both anti Annexin FITC conjugated antibody to detect apoptotic cells, and PI (propidium iodide) to stain dead cells, according to the manufacturer's instructions. Stained cells were then analyzed by flow cytometry. A total of 10,000 cells was counted for each sample and divided into four sub populations according to staining intensity; cells negative for both PI and Annexin (−PI, −Annexin) are termed live; cells negative for PI and positive for Annexin (−PI, +Annexin) are going through early stages of apoptosis; cells positive for PI and Annexin (+PI, +Annexin) are dead cells that underwent an apoptotic process; and cells positive for PI and negative for Annexin (+PI, −Annexin) are assumed as dead cells that died by a non-apoptotic process such as necrosis.
FIGS. 17A and 17B illustrate a representative experiments performed on ES2 ovarian carcinoma cells (FIGS. 17A-D) expressing Mut-p53 with a mutation at positions 241 within the DBD. […] Cells were harvested, and 60% of the cells were taken for Annexin-PI apoptosis assay and 40% for extraction of RNA, cDNA synthesis and real time PCR analysis. Apoptosis was assayed using the Annexin-V staining kit (Roche, REF 11 988 549 001). Non-fixed cells were stained with both anti Annexin FITC conjugated antibody to detect apoptotic cells, and PI (propidium-iodide) to stain dead cells permeable to the compound, according to the manufacturer's instructions. Stained cells were then analyzed by flow cytometry. A total of 10,000 cells was counted for each sample and divided into four subpopulations according to staining intensity: cells negative for both PI and Annexin (−PI, −Annexin) are termed live; cells negative for PI and positive for Annexin (−PI, +Annexin) are going through early stages of apoptosis; cells positive for PI and Annexin (+PI, +Annexin) are dead cells that underwent an apoptotic process; and cells positive for PI and negative for Annexin (+PI, −Annexin) are assumed to be dead cells that died a non-apoptotic death such as necrosis. […] Treatment with pCAPs 242 and 250 causes a rapid increase in apoptotic cells followed by cell death and after 5 hours of treatment 12% of cells are Annexin positive and about 7% are dead. After 16 and 24 hours of treatment with pCAP 250 the apoptotic population increases to about 27% and dead cells accumulate to 29% at 16h and 36% after 24h. […] CD95 and Btg-2 expression is elevated up to 6 fold over non-treated cells.

SFILFIRRGRLG [pCAP-60]
reactivity of R175H Mut-p53 towards PAb1620 and PAb240 (conformational change) (Mut-p53 (R175H p53)): increased reactivity of R175H Mut-p53 towards PAb1620 and decreased reactivity towards PAb240
reduction in cell numbers, R175H p53 expressing WI-38 cells [1]: significant reduction in cell numbers

myr-RRIRDPRILLLHFD (Myristoyl-RRIRDPRILLLHFD) [pCAP-325]
IVIS average ratio to day 0 ([2]; Experiment 3, SW-480): 4.4%
Samples average size ([2]; Experiment 3, SW-480): 0.12
Samples average weight ([2]; Experiment 3, SW-480): 0.10
Number of total regression ([2]; Experiment 3, SW-480, 10 samples per group): 2
log of luminescence intensity mean at day 0 ([2]; day 0 (first day of treatment)): 8.97
average fold change in tumor size (from luminescence) ([2]; day 0 to day 35): 0.043 fold
tumor size decrease ([2]; day 0 to day 35, inferred from log of luminescence intensity mean): 95.6%
log of luminescence intensity mean at day 35 ([2]; day 35): 7.61
size and weight of extracted tumors compared to control peptides ([2]; p-value <0.05): significantly smaller in size and weight

LRCLLLLIGRVG [pCAP-24]
reactivity of R175H Mut-p53 towards PAb1620 and PAb240 (conformational change) (Mut-p53 (R175H p53)): increased reactivity of R175H Mut-p53 towards PAb1620 and decreased reactivity towards PAb240

ASWQALALYAAGW [pCAP-46]
reduction in cell numbers, R175H p53 expressing WI-38 cells [1]: significant reduction in cell numbers

myr-RRLIVRILKLPNPPER (Myristoyl-RRLIVRILKLPNPPER) [pCAP-242]
apoptosis and cell death time course compared with pCAP 250 [3]: attenuated and slower
Annexin positive cells ([3]; after 5 hours of treatment): 12%
dead cells ([3]; after 5 hours of treatment): about 7%
